Data as given in patent publication US10640495B2, “Heterocycle derivatives having TrkA inhibitory activity” (Shionogi & Co., Ltd., priority 2015, dated 2020).
Read-outs that look alike come from different tables or passages of the source.

Molecular target: human TrkA (Homo sapiens (Human), UniProt P04629)
Assay: Human TrkA inhibition assay (Test Example 2)
Format: biochemical
Method in brief: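 Recombinant TrkA (1 nmol/L) was preincubated 15 min at room temperature with compound in HEPES/MgCl2/DTT buffer, then reacted with FL-peptide 27 (1.5 μmol/L) and ATP (500 μmol/L) for 120 min at 37 °C. After EDTA stop, substrate phosphorylation was read by microfluidic mobility shift. IC50 came from logistic regression over 3-fold dilution series.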

[1] = Table 153, human TrkA inhibition, read-out: IC50
[2] = Table 154, human TrkA inhibition, read-out: IC50
[3] = Table 156, human TrkA inhibition, read-out: IC50
[4] = Table 152, human TrkA inhibition, read-out: IC50_nM
[5] = Table 155, human TrkA inhibition, read-out: IC50
[6] = human TrkA 1 nmol/L, ATP 500 μmol/L, 120 min at 37° C., read-out: IC50 values (TrkA phosphorylation inhibition)
[7] = Table 157, human TrkA inhibition, read-out: IC50

Sequence of human TrkA (P04629 440-796): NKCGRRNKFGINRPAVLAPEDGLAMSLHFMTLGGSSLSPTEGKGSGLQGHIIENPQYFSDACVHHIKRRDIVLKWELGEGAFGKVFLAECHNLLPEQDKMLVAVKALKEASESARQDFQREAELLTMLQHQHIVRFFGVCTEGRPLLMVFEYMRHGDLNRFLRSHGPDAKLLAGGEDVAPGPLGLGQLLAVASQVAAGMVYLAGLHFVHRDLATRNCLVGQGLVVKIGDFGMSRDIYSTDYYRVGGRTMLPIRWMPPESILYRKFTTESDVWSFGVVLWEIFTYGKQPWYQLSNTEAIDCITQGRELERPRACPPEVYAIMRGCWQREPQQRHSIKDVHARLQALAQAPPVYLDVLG

COCCN1C[C@@H](NC(=O)Nc2c(C)c(-c3cc(C(=O)NC4CCOCC4)c(=O)n(C)c3)nn2-c2ccccc2)[C@H](c2cnc(F)c(F)c2)O1 (racemic) [Compound I-74] gave an IC50 [1] of less than 100 nM.
Compound COCCN1C[C@@H](NC(=O)Nc2c(C)c(-c3cnc(OC)c(C(=O)NC4CCS(=O)(=O)CC4)c3)nn2-c2ccccc2)[C@H](c2cnc(F)c(F)c2)O1 (racemic) [Compound I-103] has an IC50 [1] of less than 100 nM.
With COCCN1C[C@@H](NC(=O)Nc2c(C)c(-c3ccnc(C(=O)OC)c3)nn2-c2ccccc2)[C@H](c2cnc(F)c(F)c2)O1 [Compound I-197] the IC50 [2] was less than 100 nM.
COCCN1C[C@@H](NC(=O)Nc2c(C)c(-c3cnc4c(c3)CCO4)nn2-c2ccccc2)[C@H](c2ccnc(F)c2)O1 (racemic) [Compound I-530] was tested, and the IC50 [3] was less than 100 nM.
COCCC1C[C@@H](NC(=O)Nc2c(C)c(-c3ccc(C(=O)OC(C)(C)C)cc3)nn2-c2ccccc2)[C@H](c2ccccc2)O1 (stereo partly drawn) [Compound I-13] showed an IC50 [4] of less than 100 nM.
COCCN1C[C@@H](NC(=O)Nc2c(C)c(-c3ccc4c(c3)NC(=O)CO4)nn2-c2ccccc2)[C@H](c2ccnc(F)c2)O1 (racemic) [Compound I-364] was tested, and the IC50 [5] was less than 100 nM.
COCCN1C[C@@H](NC(=O)Nc2c(C)c(-c3ccc(N4C[C@H]5COC[C@@H](C4)N5C(=O)OC(C)(C)C)nc3)nn2-c2ccccc2)[C@H](c2ccnc(F)c2)O1 (racemic) [Compound I-393] was tested, and the IC50 [5] was less than 100 nM.
For COCCN1C[C@@H](NC(=O)Nc2c(C)c(-c3cnc4c(c3)nc(CO)n4C)nn2-c2ccccc2)[C@H](c2ccc(F)c(F)c2)O1 (racemic) [Compound I-78], the IC50 [1] was less than 100 nM.
For COCCN1C[C@@H](NC(=O)Nc2c(C)c(-c3cnc(F)nc3)nn2-c2ccccc2)[C@H](c2ccnc(F)c2)O1 (racemic) [Compound I-300], the IC50 [2] was less than 100 nM.
Compound CCN1C[C@@H](NC(=O)Nc2c(C)c(OCC3CCN(C(C)=O)CC3)nn2-c2ccccc2)[C@H](c2ccc(F)c(F)c2)O1 (racemic) [Compound I-563] has an IC50 [3] of less than 100 nM.
Compound COCCN1C[C@@H](NC(=O)Nc2c(C)c(OCC3CN(C(C)=O)CCO3)nn2-c2ccccc2)[C@H](c2ccc(F)c(F)c2)O1 (single isomer, unassigned) [Compound I-578] has an IC50 [3] of less than 100 nM.
With COCCN1C[C@@H](NC(=O)Nc2c(C)c(-c3ccc(N4C[C@H]5COC[C@@H](C4)N5)nc3)nn2-c2ccccc2)[C@H](c2ccnc(F)c2)O1 (racemic) [Compound I-394] the IC50 [5] was less than 100 nM.
COCCN1C[C@@H](NC(=O)Nc2c(C)c(-c3cnc(C)nc3)nn2-c2ccccc2)[C@H](c2ccccc2)O1 (racemic) [Compound I-160] showed an IC50 [1] of less than 100 nM.
CNC(=O)c1cc(-c2nn(-c3ccccc3)c(NC(=O)N[C@@H]3CN(C)O[C@H]3c3ccc(F)c(F)c3)c2C)cnc1OC (racemic) [Compound I-469] was tested, and the IC50 [5] was less than 100 nM.
Work on COCCN1C[C@@H](NC(=O)Nc2c(C)c(-c3ccncc3)nn2-c2ccccc2)[C@H](c2ccc(F)c(F)c2)O1 [Compound I-466] yielded an IC50 [5] of less than 100 nM.
With COCCN1C[C@@H](NC(=O)Nc2c(C)c(OCC3CN(C(=O)OC(C)(C)C)CCO3)nn2-c2ccccc2)[C@H](c2ccnc(F)c2)O1 (stereo partly drawn) [Compound I-499] the IC50 [5] was less than 100 nM.
COCCN1C[C@@H](NC(=O)Nc2c(C)c(-c3cnc(N(C)C)nc3)nn2-c2ccccc2)[C@H](c2cnc(F)c(F)c2)O1 [Compound I-133] gave an IC50 [1] of less than 100 nM.
For COCCN1C[C@@H](NC(=O)Nc2c(C)c(-c3ccc4nc(C)nn4c3)nn2-c2ccccc2)[C@H](c2cnc(F)c(F)c2)O1 [Compound I-363], the IC50 [5] was less than 100 nM.
COCCN1C[C@@H](NC(=O)Nc2c(C)c(-c3cnc4cnn(C)c4c3)nn2-c2ccccc2)[C@H](c2ccnc(F)c2)O1 (racemic) [Compound I-63] gave an IC50 [1] of less than 100 nM.
COCCN1C[C@@H](NC(=O)Nc2c(C)c(-c3cnc4c(c3)ncn4C)nn2-c2ccccc2)[C@H](c2cc(F)nc(F)c2)O1 (racemic) [Compound I-320] showed an IC50 [5] of less than 100 nM.
COCCN1C[C@@H](NC(=O)Nc2c(C)c(-c3cnc4c(c3)c(=O)n(C)n4C)nn2-c2ccccc2)[C@H](c2cnc(F)c(F)c2)O1 (racemic) [Compound I-79] gave an IC50 [6] of 1.5 nM.
Work on COCCN1C[C@@H](NC(=O)Nc2c(C)c(-c3cnc(OC)c(C#N)c3)nn2-c2ccccc2)[C@H](c2ccnc(F)c2)O1 (racemic) [Compound I-307] yielded an IC50 [2] of less than 100 nM.
COCCN1C[C@@H](NC(=O)Nc2c(C)c(-c3cnc4nccnc4c3)nn2-c2ccccc2)[C@H](c2ccc(F)c(F)c2)O1 (racemic) [Compound I-134] was tested, and the IC50 [1] was less than 100 nM.
For COCCN1C[C@@H](NC(=O)Nc2c(C)c(-c3cnn(C)c3)nn2C2CC2)[C@H](c2ccc(F)c(F)c2)O1 (racemic) [Compound I-88], the IC50 [1] was greater than 1000 nM.
COCC[C@@H]1C[C@@H](NC(=O)Nc2c(C)c(-c3cc(C(=O)NC4CCOCC4)c(=O)n(C)c3)nn2-c2ccccc2)[C@H](c2ccnc(F)c2)O1 [Compound I-272] gave an IC50 [2] of less than 100 nM.
Compound COCCN1C[C@@H](NC(=O)Nc2c(C)c(-c3cnc(C4CC4)nc3)nn2-c2ccccc2)[C@H](c2cnc(F)c(F)c2)O1 (racemic) [Compound I-70] has an IC50 [1] of less than 100 nM.
CNC(=O)c1cc(-c2nn(-c3ccccc3)c(NC(=O)N[C@@H]3CN(C)O[C@H]3c3ccc(F)c(F)c3)c2C)cn(C)c1=O (racemic) [Compound I-193] gave an IC50 [6] of 4 nM.
Compound COCCN1C[C@@H](NC(=O)Nc2c(C)c(-c3cnc(C(=O)NC4CC4)c(F)c3)nn2-c2ccccc2)[C@H](c2ccnc(F)c2)O1 (racemic) [Compound I-257] has an IC50 [2] of less than 100 nM.
Work on CCN1C[C@@H](NC(=O)Nc2c(C)c(-c3ccc(OC)nc3)nn2-c2ccccc2)[C@H](c2ccc(F)c(F)c2)O1 (racemic) [Compound I-627] yielded an IC50 [6] of 4.8 nM.
COCCN1C[C@@H](NC(=O)Nc2c(C)c(-c3cnc(COC)nc3)nn2-c2ccccc2)[C@H](c2ccc(F)c(F)c2)O1 [Compound I-508] gave an IC50 [6] of 1.1 nM.
Compound COCCN1C[C@@H](NC(=O)Nc2c(C)c(-c3cnc(OCF)nc3)nn2-c2ccccc2)[C@H](c2ccnc(F)c2)O1 (racemic) [Compound I-620] has an IC50 [6] of 6.8 nM.
COCCN1C[C@@H](NC(=O)Nc2c(C)c(-c3cnc(OC)c(CO)c3)nn2-c2ccccc2)[C@H](c2ccc(F)c(F)c2)O1 [Compound I-637] gave an IC50 [7] of less than 100 nM.
Work on COCCN1C[C@@H](NC(=O)Nc2c(C)c(-c3cnc(NC4CC4)nc3)nn2-c2ccccc2)[C@H](c2ccnc(F)c2)O1 (racemic) [Compound I-131] yielded an IC50 [1] of less than 100 nM.
For COCCOc1ncc(-c2nn(-c3ccccc3)c(NC(=O)N[C@@H]3CN(CCOC)O[C@H]3c3ccnc(F)c3)c2C)cn1 (racemic) [Compound I-511], the IC50 [5] was less than 100 nM.
With COCCN1C[C@@H](NC(=O)Nc2c(C)c(-c3ccc(N4CCN(C(=O)OC(C)(C)C)CC4)nc3)nn2-c2ccccc2)[C@H](c2ccnc(F)c2)O1 (racemic) [Compound I-372] the IC50 [5] was less than 100 nM.
With COCCN1C[C@@H](NC(=O)Nc2c(C)c(-c3cnc4c(c3)c(C)nn4C)nn2-c2ccccc2)[C@H](c2ccnc(F)c2)O1 (racemic) [Compound I-114] the IC50 [1] was less than 100 nM.
For COCCN1C[C@@H](NC(=O)Nc2c(C)c(-c3ccc4nccn4c3)nn2-c2ccccc2)[C@H](c2ccnc(F)c2)O1 (racemic) [Compound I-470], the IC50 [5] was less than 100 nM.
For COCCN1C[C@@H](NC(=O)Nc2c(C)c(C3=CCN(C(C)=O)CC3)nn2-c2ccccc2)[C@H](c2ccnc(F)c2)O1 (racemic) [Compound I-42], the IC50 [4] was less than 100 nM.
COCCN1C[C@@H](NC(=O)Nc2c(C)c(-c3cnc(OCC4CC4)nc3)nn2-c2ccccc2)[C@H](c2ccnc(F)c2)O1 (racemic) [Compound I-431] showed an IC50 [6] of 3.1 nM.
COCCN1C[C@@H](NC(=O)Nc2c(C)c(-c3cnc(N4C[C@H]5COC[C@@H](C4)N5)nc3)nn2-c2ccccc2)[C@H](c2ccnc(F)c2)O1 (racemic) [Compound I-421] gave an IC50 [5] of less than 100 nM.
COCCN1C[C@@H](NC(=O)Nc2c(C)c(-c3cc(C)c4nccn4c3)nn2-c2ccccc2)[C@H](c2ccnc(F)c2)O1 (racemic) [Compound I-348] showed an IC50 [5] of less than 100 nM.
Work on COCCN1C[C@@H](NC(=O)Nc2c(C)c(-c3ccc(=O)n(C)c3)nn2-c2ccccc2)[C@H](c2ccnc(F)c2)O1 (racemic) [Compound I-496] yielded an IC50 [5] of less than 100 nM.
In the case of COCCN1C[C@@H](NC(=O)Nc2c(C)c(-c3ccc(N4CCN(CC#N)CC4)nc3)nn2-c2ccccc2)[C@H](c2ccnc(F)c2)O1 (racemic) [Compound I-375], the IC50 [5] is reported as less than 100 nM.
CNC(=O)c1cc(-c2nn(-c3ccccc3)c(NC(=O)N[C@@H]3CN(Cc4csnn4)O[C@H]3c3ccc(F)c(F)c3)c2C)cn(C)c1=O (racemic) [Compound I-151] showed an IC50 [1] of less than 100 nM.
For COCCN1C[C@@H](NC(=O)Nc2c(C)c(-c3ccnc(C(=O)O)c3)nn2-c2ccccc2)[C@H](c2cnc(F)c(F)c2)O1 [Compound I-213], the IC50 [2] was less than 100 nM.
For CCN1C[C@@H](NC(=O)Nc2c(C)c(OCCCCN(C)C)nn2-c2ccccc2)[C@H](c2ccc(F)c(F)c2)O1 (racemic) [Compound I-662], the IC50 [7] was less than 100 nM.
In the case of COCCN1C[C@@H](NC(=O)Nc2c(C)c(-c3ccc(N4CCC(NC(C)=O)C4)nc3)nn2-c2ccccc2)[C@H](c2ccnc(F)c2)O1 (stereo partly drawn) [Compound I-349], the IC50 [5] is reported as less than 100 nM.
Compound Cc1c(-c2cnc3c(cnn3C)c2)nn(-c2ccccc2)c1NC(=O)N[C@@H]1CN(Cc2cn[nH]c2)O[C@H]1c1ccc(F)c(F)c1 (racemic) [Compound I-204] has an IC50 [2] of 100 to 1000 nM.
COCCN1C[C@@H](NC(=O)Nc2c(C)c(-c3cnc4c(cnn4C)c3)nn2-c2ccccc2)[C@H](c2ccnc(F)c2)O1 [Compound I-65] gave an IC50 [6] of 0.92 nM.
With COCCN1C[C@@H](NC(=O)Nc2c(C)c(OCC(=O)NC3CC3)nn2-c2ccccc2)[C@H](c2ccnc(F)c2)O1 (racemic) [Compound I-635] the IC50 [7] was less than 100 nM.
COCCN1C[C@@H](NC(=O)Nc2c(C)c(-c3cnc4c(c3)oc(=O)n4C)nn2-c2ccccc2)[C@H](c2ccnc(F)c2)O1 (racemic) [Compound I-122] showed an IC50 [6] of 2.7 nM.
